Assay results as given in patent US6410585B1, “Inhibitors of protein tyrosine phosphatase” (priority 1997, dated 2002).
Values joined by “and” are separate entries in the source; they are usually repeats but may differ in a detail not shown here. Equal values may be shown once. Read-outs that look alike come from different tables or passages of the source.

Tests used:
human PTP1B = biological target: T1, human PTP1B (Homo sapiens, UniProt P18031); assay: PTP1B assay, pNPP hydrolysis, assayed exactly as for PTP1; type: biochemical; details: for inhibition at 1 µM / inhibition at 10 µM / inhibition at 100 µM: Table 2, read-out: PTP1B Inhib PTP1B. % Inhib; for PTP1B Inhib PTP1B. % Inhib: Table 2
T1 construct: human PTP1B (amino acid residues 1-321); made in house; host or cells: E. coli BL21(DE3)
T1 sequence (P18031 1-321): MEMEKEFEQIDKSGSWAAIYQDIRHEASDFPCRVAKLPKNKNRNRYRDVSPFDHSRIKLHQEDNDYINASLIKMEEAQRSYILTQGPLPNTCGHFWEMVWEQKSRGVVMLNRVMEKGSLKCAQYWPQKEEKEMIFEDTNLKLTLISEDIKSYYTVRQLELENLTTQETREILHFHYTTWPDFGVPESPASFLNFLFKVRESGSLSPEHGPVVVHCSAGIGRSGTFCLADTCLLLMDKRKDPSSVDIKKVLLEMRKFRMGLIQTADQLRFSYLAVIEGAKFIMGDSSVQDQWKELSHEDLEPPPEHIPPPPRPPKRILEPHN
Source text: The equivalent construct of human PTP1B (amino acid residues 1-321) (cloned from a human placental library), without the GST tag and thrombin cleavage site, was inserted into a pMB replicon and transformed into E. coli BL21(DE3), a strain containing a chromosomal copy of the gene for T7 RNA polymerase under control of a lacUV5 promoter. Expression of PTP1B was induced with isopropyl thiogalactose and the soluble protein was purified by ion exchange, hydrophobic interaction and gel exclusion chromatography for use in the assay to identify PTP inhibitors.
PTP1 activity is measured using either p-nitrophenol phosphate (pNPP) or a triphosphopeptide (that matches residues 1142 through 1153 of the β-subunit and the insulin receptor) as substrate in a 96-well microtiter plate format. An assay pH of 7.2 is used for standard assays (measured 405=9800 at pH 7.2).
Human PTP1B, which is highly homologous to rat PTP1, was assayed exactly as described above for PTP1.
Standard assays are conducted at room temperature in a total volume of 0.2 ml that contains Hepes buffer (50 mM, pH 7.2), NaCl (50 mM), EDTA (1 mM), DTT (1 mM), bovine serum albumin (1 mg/ml), pNPP (1 mM) and PTP1 (35 ng/ml). Compounds (2 μl of 10 mM solutions) are pipetted into wells of microtiter plates followed by 198 μl of premixed reaction mix (with PTP1 and pNPP added immediately before use). The rate of change in A405 is recorded for 60 min. Two wells on each plate contain DMSO controls and two wells contain sodium orthovanadate (1 mM) which inhibits PTP1-catalyzed hydrolysis of pNPP completely. Data are expressed as percent inhibition relative to the average of the DMSO controls measured on the same microtiter plate.

rat PTP1 = biological target: T2, rat PTP1 (Rattus norvegicus, UniProt P20417); assay: PTP1 assay, pNPP hydrolysis (rate of change in A405); type: biochemical
T2 construct: a C-terminal truncation of rat PTP1 (amino acid residues 1-322); GST (N, cleaved yes); made in house; host or cells: E. coli strain TG-1 (pGEX-2T)
T2 sequence (P20417 1-322): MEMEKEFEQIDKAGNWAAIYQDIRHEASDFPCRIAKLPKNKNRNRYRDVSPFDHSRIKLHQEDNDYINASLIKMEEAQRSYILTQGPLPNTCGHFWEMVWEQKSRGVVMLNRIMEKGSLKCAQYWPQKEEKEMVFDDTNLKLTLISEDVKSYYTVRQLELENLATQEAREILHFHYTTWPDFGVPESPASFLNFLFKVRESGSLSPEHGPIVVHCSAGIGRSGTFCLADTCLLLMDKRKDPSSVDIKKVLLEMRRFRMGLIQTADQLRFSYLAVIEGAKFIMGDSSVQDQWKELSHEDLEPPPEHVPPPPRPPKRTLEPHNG
In short: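 Thrombin-cleaved rat PTP1 residues 1-322 (35 ng/ml) with 1 mM pNPP in 50 mM Hepes pH 7.2, NaCl, EDTA, DTT, BSA at room temperature. A405 rate followed 60 min. Compounds added as 10 mM solutions; percent inhibition relative to plate DMSO controls, 1 mM orthovanadate as full-inhibition control.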

[1] = Conc 1 uM, pNPP hydrolysis, Table 1, read-out: PTP1 Inhib % Inhib
[2] = Conc 10 uM, pNPP hydrolysis, Table 1, read-out: PTP1 Inhib % Inhib
[3] = Conc 100 uM, pNPP hydrolysis, Table 1, read-out: PTP1 Inhib % Inhib
[4] = Conc 1 uM, pNPP hydrolysis, Table 2, read-out: PTP1 Inhib PTP1N. % Inhib
[5] = Conc 10 uM, pNPP hydrolysis, Table 2, read-out: PTP1 Inhib PTP1N. % Inhib
[6] = Conc 100 uM, pNPP hydrolysis, Table 2, read-out: PTP1 Inhib PTP1N. % Inhib

SMILES | inhibition at 1 µM (human PTP1B; Conc 1 uM) | inhibition at 10 µM (human PTP1B; Conc 10 uM) | inhibition at 100 µM (human PTP1B; Conc 100 uM) | also measured
CCCCCNC(=O)[C@H](Cc1ccc(OC(C(=O)O)C(=O)O)cc1)NC(=O)C(Cc1ccccc1)NC(=O)OC(C)(C)C (stereo partly drawn) | 2% | 8% | 44% | 
CCCCCNC(=O)[C@H](Cc1ccc(OCC(=O)O)c(C(=O)O)c1)NC(=O)C(Cc1ccccc1)NC(=O)CSc1nnc[nH]1 (stereo partly drawn) | 36% | 82% | 96% | 
CCCCCNC(=O)C(Cc1ccc(OC(COO)COO)cc1)NC(=O)C(CC(C)C)NC(=O)OC(C)(C)C (stereo not drawn) | 4% | 24% | 76% | 
CCCCCNC(=O)C(Cc1ccc(OC(COO)COO)cc1)NC(=O)C(COCc1ccccc1)NC(=O)OC(C)(C)C (stereo not drawn) | 3% | 19% | 71% | 
CCCCCNC(=O)C(Cc1ccc(OCC(=O)O)c(OCC(=O)O)c1)NC(=O)C(Cc1ccccc1)NC(=O)OC(C)(C)C (stereo not drawn) | 1% | 5% | 25% | 
CCCCCNC(=O)C(Cc1ccc(OCCOO)c(COO)c1)NC(=O)N(Cc1ccccc1)Cc1ccccc1 (stereo not drawn) | 11% | 45% | 87% | 
CCCCCNC(=O)C(Cc1ccc(OC(COO)COO)cc1)NC(=O)CNC(=O)OCc1ccccc1 (stereo not drawn) | 6% | 19% | 66% | 
CCCCCNC(=O)C(Cc1ccc(OCCOO)c(COO)c1)NC(=O)C(Cc1ccc(O)cc1)NC(=O)OC(C)(C)C (stereo not drawn) | 32% | 81% | 97% | PTP1B Inhib PTP1B. % Inhib (human PTP1B; Conc 1 uM): 28%; PTP1B Inhib PTP1B. % Inhib (human PTP1B; Conc 10 uM): 78%; PTP1B Inhib PTP1B. % Inhib (human PTP1B; Conc 100 uM): 96%
CCCCCNC(=O)C(Cc1ccc(OC(COO)COO)cc1)NC(=O)C(CCSC)NC(=O)OC(C)(C)C (stereo not drawn) | 5% | 25% | 74% | PTP1B Inhib PTP1B. % Inhib (human PTP1B; Conc 10 uM): 30%; PTP1B Inhib PTP1B. % Inhib (human PTP1B; Conc 100 uM): 82%
CCCCCNC(=O)C(Cc1ccc(OC(COO)COO)cc1)NC(=O)C(CCc1ccccc1)NC(=O)OC(C)(C)C (stereo not drawn) | 2% |  | 58% | PTP1B Inhib PTP1B. % Inhib (human PTP1B; Conc 10 uM): 7% and 17%; PTP1B Inhib PTP1B. % Inhib (human PTP1B; Conc 100 uM): 77%
CCCCCNC(=O)C(Cc1ccc(OC(COO)COO)cc1)NC(=O)C(Cc1ccccc1)NC(=O)CCNC(=O)OC(C)(C)C (stereo not drawn) | 14% | 62% | 93% | 
CCCCCNC(=O)C(Cc1ccc(OC(COO)COO)cc1)NC(=O)C(Cc1ccc2ccccc2c1)NC(=O)OC(C)(C)C (stereo not drawn) |  | 29% | 93% | PTP1B Inhib PTP1B. % Inhib (human PTP1B; Conc 1 uM): 1% and 3%; PTP1B Inhib PTP1B. % Inhib (human PTP1B; Conc 100 uM): 90%
CCCCCNC(=O)C(Cc1ccc(OCCOO)c(COO)c1)NC(=O)C(Cc1ccccc1)NC(=O)Cc1ccc(O)cc1 (stereo not drawn) | 46% | 88% | 98% | 
CCCCCNC(=O)[C@H](Cc1ccc(OCC(=O)O)c(C(=O)O)c1)NC(=O)C(Cc1ccccc1)N1CCCC1=O (stereo partly drawn) | 24% | 71% | 94% | 
CCCCCNC(=O)C(Cc1ccc(OCCOO)c(COO)c1)NC(=O)C(Cc1ccccc1)NC(C)=O (stereo not drawn) | 28% | 77% | 96% | 
CCCCCNC(=O)C(Cc1ccc(OC(COO)COO)cc1)NC(=O)C(Cc1ccccc1)NC(=O)NC(C)(C)C (stereo not drawn) | 9% | 40% | 86% | 
CCCCCNC(=O)C(Cc1ccc(OCCOO)c(COO)c1)NC(=O)C(Cc1ccccc1)NC(=O)OC(C)(C)C (stereo not drawn) [drawing 189] |  |  |  | PTP1B Inhib PTP1B. % Inhib (human PTP1B; Conc 1 uM): 2%; PTP1B Inhib PTP1B. % Inhib (human PTP1B; Conc 10 uM): 19%; PTP1B Inhib PTP1B. % Inhib (human PTP1B; Conc 100 uM): 69%
CC(C)(C)OC(=O)N[C@@H](Cc1ccccc1)C(=O)N[C@H](CO)Cc1ccc(OCC(=O)O)c(C(=O)O)c1 [drawing 222] | 5% | 31% | 80% | 
CCCCCNC(=O)C(Cc1ccc(OCCOO)c(COO)c1)NC(=O)C(Cc1ccccc1)NC(=O)Cc1ccc(C)cc1 (stereo not drawn) | 39% | 85% | 98% | 
CCCCCNC(=O)C(Cc1ccc(OCCOO)c(COO)c1)NC(=O)C(Cc1ccccc1)NC(=O)Cc1c[nH]c2ccccc12 (stereo not drawn) | 47% | 88% | 98% | 
CCCCCNC(=O)[C@H](Cc1ccc(OCC(=O)O)c(C(=O)O)c1)NC(=O)C(Cc1ccccc1)NC(=O)CSc1cnn[nH]1 (stereo partly drawn) | 49% | 88% | 98% | 
CCCCCNC(=O)C(Cc1ccc(OCCOO)c(COO)c1)NC(=O)C(Cc1ccccc1)NC(=O)Cc1cccc(O)c1 (stereo not drawn) | 43% | 86% | 98% | 
CCCCCNC(=O)C(Cc1ccc(OC(COO)COO)cc1)NC(=O)N(Cc1ccccc1)Cc1ccccc1 (stereo not drawn) | 18% | 65% | 95% | PTP1B Inhib PTP1B. % Inhib (human PTP1B; Conc 1 uM): 14%; PTP1B Inhib PTP1B. % Inhib (human PTP1B; Conc 10 uM): 59%; PTP1B Inhib PTP1B. % Inhib (human PTP1B; Conc 100 uM): 93%
CCCCCNC(=O)C(Cc1ccc(OC(COO)COO)cc1)NC(=O)N1CCN(C(=O)OC(C)(C)C)CC1 (stereo not drawn) | 19% | 68% | 95% | PTP1B Inhib PTP1B. % Inhib (human PTP1B; Conc 10 uM): 63%; PTP1B Inhib PTP1B. % Inhib (human PTP1B; Conc 100 uM): 92%
CCCCCNC(=O)C(Cc1ccc(OC(COO)COO)cc1)NC(=O)CCC(=O)O (stereo not drawn) [drawing 81] |  |  |  | PTP1 Inhib % Inhib (rat PTP1; Conc 1 uM, pNPP hydrolysis, Table 1): 1%; PTP1 Inhib % Inhib (rat PTP1; Conc 10 uM, pNPP hydrolysis, Table 1): 25%; PTP1 Inhib % Inhib (rat PTP1; Conc 100 uM, pNPP hydrolysis, Table 1): 81% and 76%
CCCCCNC(=O)C(Cc1ccc(OC(COO)COO)cc1)NC(=O)N(CC(=O)O)Cc1ccccc1 (stereo not drawn) |  |  |  | inhibition at 1 µM (rat PTP1; [1]): 3%; inhibition at 10 µM (rat PTP1; [2]): 25%; inhibition at 100 µM (rat PTP1; [3]): 75%
CC(C)(C)OC(=O)N[C@@H](Cc1ccccc1)C(=O)N[C@H](Cc1ccc(OCC(=O)O)c(C(=O)O)c1)C(=O)NCCCN1CCCC1=O [Example 157-12, 5-((2R)-2-({(2S)-2-[(tert-Butoxycarbonyl)amino]-3-phenylpropanoyl}amino)-3-oxo-3-{[3-(2-oxo-1-pyrrolidinyl)propyl]amino}propyl)-2-(carboxymethoxy)benzoic Acid] |  |  |  | inhibition at 1 µM (rat PTP1; inhibition of pNPP-hydrolysis, compound concentration 1 μM, read-out: % Inhibition): 27%; inhibition at 10 µM (rat PTP1; inhibition of pNPP-hydrolysis, compound concentration 10 μM, read-out: % Inhibition): 76%; inhibition at 100 µM (rat PTP1; inhibition of pNPP-hydrolysis, compound concentration 100 μM, read-out: % Inhibition): 95%
CCCCCNC(=O)C(Cc1ccc(OC(COO)COO)cc1)NC(=O)C(Cc1ccc(OC)cc1)NC(=O)CCC(=O)O (stereo not drawn) |  |  |  | inhibition at 1 µM (rat PTP1; [4]): 32%; inhibition at 10 µM (rat PTP1; [5]): 83%; inhibition at 100 µM (rat PTP1; [6]): 98%
CCCCCNC(=O)C(Cc1ccc(OC(COO)COO)cc1)NC(=O)[C@H](Cc1ccc(C(=O)c2ccccc2)cc1)NC(C)=O (stereo partly drawn) |  |  |  | inhibition at 1 µM (rat PTP1; [4]): 9%; inhibition at 10 µM (rat PTP1; [5]): 42%; inhibition at 100 µM (rat PTP1; [6]): 87%
CCCCCNC(=O)C(Cc1ccc(OC(COO)COO)cc1)NC(=O)N(CC(=O)O)Cc1ccc(OCc2ccccc2)cc1 (stereo not drawn) |  |  |  | inhibition at 1 µM (rat PTP1; [1]): 5%; inhibition at 10 µM (rat PTP1; [2]): 35%; inhibition at 100 µM (rat PTP1; [3]): 90%
